Broadly, the Km is the concentration of substrate that gives half-maximal velocity.

Here are results for 1 compound from PMC11564776, “Enzyme stabilisation due to incorporation of a fluorinated non-natural amino acid at the protein surface” (Scientific Reports, 2024).

Like-named read-outs stand apart in the source and are kept apart here.

For this experiment, the target named is T1, WT transketolase (WT TK) (Escherichia coli, UniProt P27302).
T1 construct: gene tktA; full length, N-terminal His6 tag (plasmid pQR791), Ni-NTA purified, tag cleavage not mentioned; homodimer of 73-74 kDa monomers; WT expressed in E. coli XL10-Gold, variants in E. coli C321.dA.exp
Description: HPLC of erythrulose formation, initial velocities, Michaelis-Menten fit. The format is biochemical. The note with it: 50 mM HPA, 1.36 mM ThDP, 5.1 mM MgCl2, 33 mM Tris.HCl, pH 7.0, assay 21 °C, pre-incubated 15 min at 21 °C, standard error in parentheses, read-out: Km (GA). The source says:
HPLC of erythrulose formation, initial velocities, Michaelis-Menten fit on WT transketolase (WT TK)

T1 sequence (P27302 whole entry): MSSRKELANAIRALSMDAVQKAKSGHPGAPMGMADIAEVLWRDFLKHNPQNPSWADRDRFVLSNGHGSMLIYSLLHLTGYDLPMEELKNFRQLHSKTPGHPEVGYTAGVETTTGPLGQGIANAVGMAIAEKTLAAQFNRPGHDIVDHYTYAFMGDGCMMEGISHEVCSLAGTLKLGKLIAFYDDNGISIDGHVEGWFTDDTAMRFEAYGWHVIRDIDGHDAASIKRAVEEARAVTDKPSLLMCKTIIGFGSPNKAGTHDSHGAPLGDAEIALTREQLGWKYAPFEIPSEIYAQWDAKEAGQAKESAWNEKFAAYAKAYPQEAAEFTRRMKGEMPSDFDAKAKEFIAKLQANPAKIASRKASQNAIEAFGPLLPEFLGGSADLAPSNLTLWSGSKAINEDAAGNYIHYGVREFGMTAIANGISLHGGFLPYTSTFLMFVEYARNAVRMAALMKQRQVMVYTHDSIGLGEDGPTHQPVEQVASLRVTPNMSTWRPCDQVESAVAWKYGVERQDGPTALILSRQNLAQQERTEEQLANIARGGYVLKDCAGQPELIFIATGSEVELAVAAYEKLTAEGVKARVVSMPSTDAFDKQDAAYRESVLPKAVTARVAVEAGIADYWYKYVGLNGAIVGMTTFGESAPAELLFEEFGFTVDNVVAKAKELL

For `O=CCO` [GA], the Km reads like this: (non-natural amino acid at 316, 84% incorporation with 9% K316F) 14 mM; (non-natural amino acid at 316, almost 100% incorporation) 18 mM.
